pIC50, pKi: −log10 of the molar value.
Key:
[1] = molecular target: T1, recombinant Mtb-DapA (Mtb-rDapA) (Mycobacterium tuberculosis, UniProt P9WP25); conditions: for Inhibition of Mtb-rDapA (in words): pyruvate 500 μM, ASA 400 μM, up to millimolar concentrations
Escherichia coli DapA = conditions: cited from earlier work; for pKi: competitive inhibitors, structural analogues of pyruvate
[2] = molecular target: T1, recombinant Mtb-DapA (Mtb-rDapA); assay: biochemical; conditions: for Emax: read-out: Maximal Inhibition (%)
Mtb-rDapA = Mtb-rDapA (Mycobacterium tuberculosis, UniProt P9WP25); assay: Fluorescence-based thermal shift assay; format: binding; conditions: ligand 0.2 mM to 1 mM; Mtb-rDapA Tm 84.8 °C
Excerpt: The fluorescence based thermal shift assay for screening of identified ligands, which is based on the principle that ligand binding alters thermal stability of protein. This method allows us to monitor the protein denaturation upon heating using fluorescence based dye (Sypro orange, Sigma, USA), which binds to hydrophobic part of proteins during protein denaturation and emits fluorescence at 580 nm[43]. We can monitor the changes in fluorescence and generate a thermal melting curve using real time PCR. The mid-point of the melting curve designated as the melting temperature Tm corresponding to 50% of protein being denatured.
The thermal shift assay was carried out in the LightCycler^R LC480 qPCR machine using 384 well PCR plates (Roche, USA). An assay mixture of 20 μl contained 20 μM Mtb-rDapA, 15 X Sypro Orange (Sigma), 50 mM sodium phosphate buffer pH 7.4 and ligand in the range 0.2 mM to 1 mM. The ligands and Mtb-rDapA were diluted in sodium phosphate buffer. The PCR plates were sealed with optical seal, mixed well and centrifuged after the assay mixture was added. […] The fluorescence intensity was measured by excitation at 465 nm and emission at 580 nm. Curve fitting, melting temperature calculation and report generation on the raw Fluorescence based thermal shift assay (FTS) data were performed using pre-installed analysis software provided with the instrument (Roche, USA)[44].

T1 sequence (P9WP25 whole entry, looked up): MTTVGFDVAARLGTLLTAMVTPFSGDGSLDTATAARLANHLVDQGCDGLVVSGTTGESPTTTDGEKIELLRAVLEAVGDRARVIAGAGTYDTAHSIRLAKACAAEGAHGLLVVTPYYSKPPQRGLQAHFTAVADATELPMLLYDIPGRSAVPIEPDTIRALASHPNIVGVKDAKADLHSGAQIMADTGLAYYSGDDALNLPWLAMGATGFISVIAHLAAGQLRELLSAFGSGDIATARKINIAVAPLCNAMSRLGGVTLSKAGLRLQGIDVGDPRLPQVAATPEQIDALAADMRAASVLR
Sequence of Mtb-rDapA (P9WP25 whole entry, looked up): as above

| SMILES | Emax [2] [%] | further results |
| --- | --- | --- |
| Nc1ccc(C(=O)O)cc1 [p-amino benzoic acid] |  | Inhibition of Mtb-rDapA (in words) [1]: None of these showed inhibition |
| CCCC(=O)C(=O)O [α-ketovalerate] |  | pKi (Escherichia coli DapA): 3.15 |
| COC(=N)c1cccc(C(=N)OC)n1 [di-imidate of dimethyl pyridine-2,6-dicarboxylate] |  | pIC50 (Escherichia coli DapA): 3.70 |
| COC(=O)CCCCC(=O)c1nn[nH]n1 [compound 21, methyl-oxo-tetrazol-hexanoate] | 35 |  |
| CN(CCCC(=O)O)C(=O)C(=O)O [compound 18, carboxy-methylformamido-butanoic acid] | 39 |  |
| CCOC(=O)CCCS(=O)(=O)CC(N)=O [compound 39, Ethyl 4-((2-amino-2-oxoethyl)sulfonyl)butanoate] | 12 |  |
| CCOC(=O)CCC[S+]([O-])CC(N)=O (centres unmarked) [compound 28, Ethyl 4-((2-amino-2-oxoethyl)sulfinyl)butanoate] | 31 |  |
| NC(=O)c1ccc(C(=O)C(=O)O)cc1 [compound 37, 2-(4-Carbamoylphenyl)-2-oxoacetic acid] | 15 |  |
| CCOC(=O)C(=O)N(C)CCCC(N)=O [compound 25, Ethyl-amino-oxobutyl-methyl-amino-oxoacetate] | 35 |  |
| COC(=O)CCCN1C(=O)NC(=O)C1=O [compound 19, methyl-trioxoimidazolidin -butanoate] | 38 |  |
| CCOC(=O)C(=O)N(C)CCCC(=O)OC [compound 15, methyl-ethoxy-methyl-oxoacetamido-butanoate] | 42 |  |
| O=C(O)c1ccc(C(O)C(=O)O)cc1 (centres unmarked) [compound 23, Carboxy-hydroxy-methyl benzoic acid] | 35 |  |
| CCOC(=O)C(=O)CCCCC(=O)O [compound 20, Ethoxy-dioxoheptanoic acid] | 35 |  |
| COC(=O)c1ccc(C(=O)C(N)=O)cc1 [compound 22, Methyl-amino-oxoacetyl benzoate] | 35 |  |
| COC(=O)c1ccc(C(=O)C(=O)O)cc1 [compound 29, methoxycarbonyl-phenyl-oxoacetic acid] | 29 |  |
| O=C(O)CCCN1C(=O)NC(=O)C1=O [compound 36, 4-(2,4,5-Trioxoimidazolidin-1-yl) butanoic acid] | 21 |  |
| Nc1ccc(C(=O)O)cc1 [compound 6, p-amino benzoic acid] | 8 |  |
| NC(=O)C(=O)c1ccc(C(=O)O)cc1 [compound 26, amino-oxoacetyl-benzoic acid] | 34 |  |
| NC(=O)NC(=O)CCCC(=O)O [compound 16, oxo-ureidopentanoic acid] | 40 |  |
| NC(=O)CS(=O)(=O)CCCC(=O)O [compound 30, 4-((2-amino-2-oxoethyl)sulfonyl) butanoic acid] | 29 |  |
| CC(=O)C(=O)O [pyruvate] |  | Tm increase of Mtb-rDapA upon binding (Mtb-rDapA): 2 °C |
| CCOC(=O)CCCCSC(N)=O [compound 27, ethyl-carbamoylthio-pentanoate] | 34 |  |
| O=C(O)CCCCC(O)C(=O)O (centres unmarked) [compound 11, hydroxyheptanedioic acid] | 74 | pIC50 ([2]; IC50, pyruvate 500 μM, ASA 400 μM): 4.51 |
| CCC(=O)C(=O)O [α-ketobutyrate] |  | pKi (Escherichia coli DapA): 3.08 |

| SMILES | Emax [2] [%] | further results |
| --- | --- | --- |
| COC(=O)CCCCC(O)C(N)=O (centres unmarked) [compound 31, Methyl 7-amino-6-hydroxy-7-oxoheptanoate] | 28 |  |
| O=C(O)CCCC(=O)C(=O)O [compound 2, 2-oxohexanedioic acid] | 40 |  |
| O=C(O)CCC(=O)C(=O)O [compound 3, 2-oxopentanedioic acid] | 15 |  |
| Nc1ccc(C(=O)O)c(O)c1 [compound 8, 4-amino-2-hydroxy-benzoic acid] | 4 | Inhibition of Mtb-rDapA (in words) [1]: None of these showed inhibition |
| O=C(O)COc1ccccc1 [compound 9, 2-phenoxyacetic acid] | 4 | Inhibition of Mtb-rDapA (in words) [1]: None of these showed inhibition |
| COC(=O)CCCC(=O)NC(N)=O [compound 12, Methyl-oxo-ureidopentanoate] | 65 |  |
| O=C(O)c1cccc(C(=O)O)[n+]1[O-] [N-oxide of dipicolinic acid] |  | pIC50 (Escherichia coli DapA): 3.70 |
| COC(=O)CCCCC(=O)C(N)=O [compound 32, methyl 7-amino-6,7-dioxoheptanoate] | 24 |  |
| O=C(O)c1ccccc1 [compound 5, Benzoic acid] | 2 | Inhibition of Mtb-rDapA (in words) [1]: None of these showed inhibition |
| NC(=O)CSCCCC(=O)O [compound 38, 4-((2-Amino-2-oxoethyl)thio) butanoic acid] | 15 |  |
| N[C@@H](CC=O)C(=O)O [ASA, L-aspartate-beta-semialdehyde] |  | Km ([1]; read-out: Michaelis constant, Km, substrate of Mtb-rDapA): 388 µM |
| CN(CCCC(N)=O)C(=O)C(N)=O [compound 17, amino-oxobutyl-methyloxalamide] | 40 |  |
| O=C(O)C(=O)c1ccc(C(=O)O)cc1 [compound 33, carboxycarbonyl-benzoic acid] | 22 |  |
| NC(=O)SCCCCC(=O)O [compound 13, 5-(Carbamoylthio)pentanoic acid] | 65 |  |
| NC(=O)CCCCC(O)C(N)=O (centres unmarked) [compound 35, 2-Hydroxyheptanediamide] | 21 |  |
| COC(=O)c1ccc(C(O)C(=O)O)cc1 (centres unmarked) [compound 24, Hydroxy-methoxycarbonyl pheny acetic acid] | 35 |  |
| CN(CCCC(N)=O)C(=O)C(=O)O [compound 14, amino-oxobutyl-methyl-amino-oxoacetic acid] | 44 |  |
| O=C(O)C(=O)CF [3-fluoropyruvate] |  | pKi (Escherichia coli DapA): 3.66 |
| CCCCc1ccc(C(=O)O)nc1 [compound 10, 5-butylpyridine-2-carboxylic acid] | 5 | Inhibition of Mtb-rDapA (in words) [1]: None of these showed inhibition |
| O=C(O)CCCCCC(=O)O [compound 4, heptanedioic acid] | 10 |  |
| O=CC(=O)O [glyoxylate] |  | pKi (Escherichia coli DapA): 4.80 |
| CCOC(=O)CCCSCC(N)=O [compound 34, Ethyl 4-((2-amino-2-oxoethyl)thio)butanoate] | 21 |  |
| CCCC(=O)CC(=O)OC [compound 7, Methyl 3-oxohexanoate] | 5 | Inhibition of Mtb-rDapA (in words) [1]: did not show any inhibition |
